From patent US20210038753A1, “BIOLOGICAL STERILIZATION INDICATOR WITH STERILANT RESISTANCE MODULATOR” (3M INNOVATIVE PROPERTIES COMPANY, priority 2014, published 2021)

Columns and labels:
Assay type in all cases: cell-based
[1] = tested on: Geobacillus stearothermophilus spores; assay: Survival of spores (growth, pH indicator change) in modulator-treated self-contained biological indicators after H2O2 sterilant exposure (Example 1); conditions: for percentage of self-contained biological indicators that showed observable growth (pH indicator change): 2 minutes
Experimental: Tub-shaped spore carriers (polypropylene), similar to those described in International Publication No. WO2014/189716 with the exception that they were not coated with colloidal nanoparticles, were used. Liquid-cultured Geobacillus stearothermophilus spores (>10^6), were suspended in sterile water. Approximately 10 μL of the spore suspension was deposited onto the spore carriers and dried at room temperature. Aliquots (0 μL, 5 μL, or 10 μL, respectively) of a 0.5M sterile solution of L-homocysteine were deposited into the dried, spore-coated tub-shaped spore carrier. The homocysteine-coated tubs were dried at room temperature. Thus, the final dried coating on the carriers included at least 10^6 spores with 0, 2.5 or 5 micromoles of L-homocysteine, respectively.
FIG. 1. The outer container 12 was obtained from 3M ATTEST 1292 Rapid Biological Indicators (available from 3M Company; St. Paul, Minn.). The cap was obtained from 3M ATTEST 1261 Biological Indicators (3M Company). The nutrient medium was from 3M ATTEST 1292 ampoules with added methionine (5 g/L). Five individual self-contained biological indicators were exposed to different concentrations (listed in Table 3) of hydrogen peroxide for 2 minutes in a STERRAD NX sterilizer. After exposing them to the sterilization process, all of the self-contained biological indicators were activated by crushing the ampoule inside the outer container.

[2] = tested on: Geobacillus stearothermophilus spores; assay: Resistance of self-contained biological indicators to hydrogen peroxide sterilization, growth readout by pH colour change (GRO+)
Experimental: (§1) PET film (.09 mm thick) was coated with colloidal silica as described in International Publication No. WO2014/189716, which is incorporated herein by reference in its entirety. […] Separate aqueous spore coating solutions were prepared as described in Example 1 with the amino acids shown in table 4 present in the coating solutions. Two microliter aliquots (containing at least 10^6 spores) of the respective spore coating solutions were deposited onto the silica-coated PET film, forming a series of spaced-apart spots on the film. The spore coated films were dried in a 60° C. incubator for 12 minutes. Circular discs (hereinafter, “coated carriers”) of the PET film, each disc including one of the dried spots, were punched out and were used to assemble self-contained biological indicators (BI) similar to that shown in FIG. 1 of International Publication No. WO2014/189716. The coated carriers described above were placed into the “spore carrier 135” shown in FIG. 1 of International Publication No. WO2014/189716. Each self-contained BI comprised a polycarbonate outer container, a breaker, a cap, and a cap filter. Disposed inside the outer container were a coated carrier along with an ampoule media containing the nutrient medium from 3M ATTEST 1292 Rapid Readout Biological Indicators plus 5g/L methionine (as described in Example 1).
(§2) The self-contained biological indicators with different concentrations of additives (Table 4) were exposed to hydrogen peroxide sterilization in STERRAD NX sterilizer. The sterilization processes were run by manually injecting 1.0 ml of 59% hydrogen peroxide per load, unless specified otherwise. The exposure time was varied to determine the resistance profile of self-contained BIs with different additive formulations. The BIs were activated by pressing down the cap to break the media ampoule. The activated BIs were placed in a bench-top fluorimeter (3M Company, St. Paul, Minn.) to detect fluorescence.
(§3) A self-contained BI that is not completely inactivated (i.e., not all of the spores are killed by the sterilization process) will resume cellular functions upon activation of the BI. The production of glucosidase enzyme by surviving spores is an indication that at least one of the spores have not been inactivated (killed) by the sterilization process. The glucosidase enzyme cleaves the 4-methylumbelliferyl-glucoside (MUG) releasing the fluorescent methyl umbelliferone, which is detected using a bench-top fluorimeter. Growth and proliferation of spores in the self-contained biological indicator can also be detected by a pH change, which may be detected by a color change of the pH indicator in the growth medium.
(§4) Self-contained biological indicators were prepared (with various additives listed in table 4) as described above in this Example. For each additive tested, a lower range and a higher range was used as a preliminary screen to identify additives modulated the resistance of the spores to the sterilant. Five self-contained BIs representing each condition were exposed to hydrogen peroxide sterilization in STERRAD NX sterilizer. The sterilization processes used a constant injection volume (1.0 ml of 59% hydrogen peroxide) and various times (e.g., 20 seconds to 7 minutes) of exposure to the hydrogen peroxide. The self-contained BIs were activated after exposure to the sterilization process and were monitored for fluorescence using a bench-top fluorimeter) and pH based color change (visually). […]
(§5) Self-contained biological indicators (with various additives listed in table 5) were prepared as described in Example 2. The self-contained biological indicators were exposed to hydrogen peroxide in a STERRAD NX sterilizer as described in Example 2. The self-contained BIs were activated after exposure to the sterilization process and were monitored for fluorescence using a bench-top fluorimeter and pH based color change (visually).

[3] = tested on: Geobacillus stearothermophilus spores; assay: Resistance of self-contained biological indicators to hydrogen peroxide sterilization, glucosidase enzyme activity fluorescence readout (ENZ+)
Experimental: as §1, §2, §3, §4, §5

[4] = Table 4, modulator 0.01 weight percent in spore coating solution, H2O2 exposure 30 sec.
[5] = Table 4, modulator 0.01 weight percent in spore coating solution, H2O2 exposure 60 sec.
[6] = Table 4, modulator 0.01 weight percent in spore coating solution, H2O2 exposure 90 sec.
[7] = Table 4, modulator 0.01 weight percent in spore coating solution, H2O2 exposure 3 min.
[8] = Table 4, modulator 0.01 weight percent in spore coating solution, H2O2 exposure 7 min.
[9] = Table 4, modulator 0.1 weight percent in spore coating solution, H2O2 exposure 30 sec.
[10] = Table 4, modulator 0.1 weight percent in spore coating solution, H2O2 exposure 60 sec.
[11] = Table 4, modulator 0.1 weight percent in spore coating solution, H2O2 exposure 90 sec.
[12] = Table 4, modulator 0.1 weight percent in spore coating solution, H2O2 exposure 3 min.
[13] = Table 4, modulator 0.1 weight percent in spore coating solution, H2O2 exposure 7 min.

Structure (SMILES): N[C@@H](CCS)C(=O)O [L-homocysteine]
- resistance of spores to H2O2 compared to 0 micromoles of L-homocysteine ([1]; 2.5 micromoles of L-homocysteine, seen with 0.6 ml and 0.8 ml of 59% H2O2): decrease in resistance of spores
- percentage of self-contained biological indicators that showed observable growth (pH indicator change) ([1]; 2.5 micromoles of homocysteine, 0.1 ml of 59% H2O2 (94 mg × Sec/L)): 100%
- percentage of self-contained biological indicators that showed observable growth (pH indicator change) ([1]; 2.5 micromoles of homocysteine, 0.2 ml of 59% H2O2 (222 mg × Sec/L)): 80%
- percentage of self-contained biological indicators that showed observable growth (pH indicator change) ([1]; 2.5 micromoles of homocysteine, 0.4 ml of 59% H2O2 (458 mg × Sec/L)): 60%
- percentage of self-contained biological indicators that showed observable growth (pH indicator change) ([1]; 2.5 micromoles of homocysteine, 0.6 ml of 59% H2O2 (689 mg × Sec/L)): 60%
- percentage of self-contained biological indicators that showed observable growth (pH indicator change) ([1]; 2.5 micromoles of homocysteine, 0.8 ml of 59% H2O2 (842 mg × Sec/L)): 20%
- resistance of spores to H2O2 ([1]; 5.0 micromoles of L-homocysteine, all kill with 0.4 ml of 59% H2O2): reduced the resistance of spores significantly
- percentage of self-contained biological indicators that showed observable growth (pH indicator change) ([1]; 5.0 micromoles of homocysteine, 0.1 ml of 59% H2O2 (94 mg × Sec/L)): 100%
- percentage of self-contained biological indicators that showed observable growth (pH indicator change) ([1]; 5.0 micromoles of homocysteine, 0.2 ml of 59% H2O2 (222 mg × Sec/L)): 40%
- percentage of self-contained biological indicators that showed observable growth (pH indicator change) ([1]; 5.0 micromoles of homocysteine, 0.4 ml of 59% H2O2 (458 mg × Sec/L)): 0%
- percentage of self-contained biological indicators that showed observable growth (pH indicator change) ([1]; 5.0 micromoles of homocysteine, 0.6 ml of 59% H2O2 (689 mg × Sec/L)): 0%
- percentage of self-contained biological indicators that showed observable growth (pH indicator change) ([1]; 5.0 micromoles of homocysteine, 0.8 ml of 59% H2O2 (842 mg × Sec/L)): 0%

Structure (SMILES): O=C(O)[C@@H]1CCCN1 [L-proline, reference compound]
- sensitivity of the biological indicator to the sterilization process relative to the control with no additives ([2]; Example 2 / Comparative Example 1 (Table 4), fluorescence and growth readouts): did not result in an increased sensitivity
- percentage of self-contained biological indicators positive for growth (GRO+) [2, 4]: 100%
- percentage of self-contained biological indicators positive for growth (GRO+) [2, 5]: 100%
- percentage of self-contained biological indicators positive for growth (GRO+) [2, 6]: 100%
- percentage of self-contained biological indicators positive for growth (GRO+) [2, 7]: 0%
- percentage of self-contained biological indicators positive for growth (GRO+) [2, 8]: 0%
- percentage of self-contained biological indicators positive for growth (GRO+) [2, 9]: 100%
- percentage of self-contained biological indicators positive for growth (GRO+) [2, 10]: 100%
- percentage of self-contained biological indicators positive for growth (GRO+) [2, 11]: 100%
- percentage of self-contained biological indicators positive for growth (GRO+) [2, 12]: 0%
- percentage of self-contained biological indicators positive for growth (GRO+) [2, 13]: 0%
- percentage of self-contained biological indicators positive for glucosidase enzyme activity (ENZ+) [3, 4]: 100%
- percentage of self-contained biological indicators positive for glucosidase enzyme activity (ENZ+) [3, 5]: 100%
- percentage of self-contained biological indicators positive for glucosidase enzyme activity (ENZ+) [3, 6]: 100%
- percentage of self-contained biological indicators positive for glucosidase enzyme activity (ENZ+) [3, 7]: 0%
- percentage of self-contained biological indicators positive for glucosidase enzyme activity (ENZ+) [3, 8]: 0%
- percentage of self-contained biological indicators positive for glucosidase enzyme activity (ENZ+) [3, 9]: 100%
- percentage of self-contained biological indicators positive for glucosidase enzyme activity (ENZ+) [3, 10]: 100%
- percentage of self-contained biological indicators positive for glucosidase enzyme activity (ENZ+) [3, 11]: 100%
- percentage of self-contained biological indicators positive for glucosidase enzyme activity (ENZ+) [3, 12]: 0%
- percentage of self-contained biological indicators positive for glucosidase enzyme activity (ENZ+) [3, 13]: 0%
